IC50 data for 28 compounds are collected here from patent US12378224B2 (Dong-A Socio Holdings Co., Ltd., priority 2016, dated 2025).

Structures are written as SMILES. pIC50: −log10 of the molar value.

In this assay the target is human MER (528-end) (Homo sapiens (Human), UniProt Q12866). Nature of the assay: HTRF Kinase Activity Biochemical Assay (KinEASE-TK). The conditions noted are these: 10 uM ATP. Put shortly: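 Recombinant human MER (528-end) phosphorylated biotin-TK peptide substrate, 1 h at room temperature. Reaction stopped with detection buffer containing 0.375 nM Eu3+-cryptate anti-TK antibody and 0.062 uM streptavidin-XL665, 1 h further. Activity taken as HTRF ratio 665/620 nm ×10,000, 340 nm excitation.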
human MER (528-end), sequence (Q12866 528-999 limits assumed): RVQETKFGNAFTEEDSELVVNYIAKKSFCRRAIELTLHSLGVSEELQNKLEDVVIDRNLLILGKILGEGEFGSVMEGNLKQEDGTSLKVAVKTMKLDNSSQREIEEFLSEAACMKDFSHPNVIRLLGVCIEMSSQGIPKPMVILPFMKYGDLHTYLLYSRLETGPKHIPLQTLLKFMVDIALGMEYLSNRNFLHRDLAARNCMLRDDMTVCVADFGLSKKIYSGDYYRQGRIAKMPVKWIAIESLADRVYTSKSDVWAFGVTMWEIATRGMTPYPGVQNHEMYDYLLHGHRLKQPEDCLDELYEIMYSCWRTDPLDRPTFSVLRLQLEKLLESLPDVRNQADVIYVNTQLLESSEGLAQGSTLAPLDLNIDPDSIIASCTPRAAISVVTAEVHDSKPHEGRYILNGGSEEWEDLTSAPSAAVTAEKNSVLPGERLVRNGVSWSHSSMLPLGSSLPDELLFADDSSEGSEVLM
In turn, `CC(C)c1ccccc1-c1ccc(C(=O)N2CC[C@@H](NC(=O)c3cc(-c4cnn(C)c4)cnc3N)C2)cc1` [Example 350, (R)-2-amino-N-(1-(2′-isopropyl-[1,1′-biphenyl]-4-carbonyl)pyrrolidin-3-yl)-5-(1-methyl-1H-pyrazol-4-yl)nicotinamide] gave a pIC50 of 6.00 to 7.00.

For the compound `C[C@H](CO)NCc1ccc(-c2cccc(OC(=O)N3CC[C@@H](NC(=O)c4cc(-c5cnn(C)c5)cnc4N)C3)c2)cc1` [Example 327, 4′-((((R)-1-hydroxypropan-2-yl)amino)methyl)-[1,1′-biphenyl]-3-yl (R)-3-(2-amino-5-(1-methyl-1H-pyrazol-4-yl)nicotinamido)pyrrolidine-1-carboxylate], the negative logarithm of the IC50 (pIC50) is 6.00 to 7.00.

On to `CN1CCC(n2cc(-c3cnc(N)c(C(=O)N[C@@H]4CCN(C(=O)Oc5cccc(-c6ccccc6)c5)C4)c3)cn2)CC1` [Example 96, [1,1′-biphenyl]-3-yl (R)-3-(2-amino-5-(1-(1-methylpiperidin-4-yl)-1H-pyrazol-4-yl)nicotinamido)pyrrolidine-1-carboxylate], for which the pIC50 was 6.00 to 7.00.

Take `Cn1cc(-c2cnc(N)c(C(=O)N[C@@H]3CCN(C(=O)Nc4cccc(-c5cnn(C6CCNCC6)c5)c4)C3)c2)cn1` [Example 260, (R)-2-amino-5-(1-methyl-1H-pyrazol-4-yl)-N-(1-((3-(1-(piperidin-4-yl)-1H-pyrazol-4-yl)phenyl)carbamoyl)pyrrolidin-3-yl)nicotinamide]: the pIC50 is less than 6.00.

`Cn1cc(-c2cnc(N)c(C(=O)N[C@@H]3CCN(C(=O)Nc4cc(Cl)cc(Cl)c4)C3)c2)cn1` [Example 34, (R)-2-amino-N-(1-((3,5-dichlorophenyl)carbamoyl)pyrrolidin-3-yl)-5-(1-methyl-1H-pyrazol-4-yl)nicotinamide] gave a pIC50 of 6.00 to 7.00.

Consider `Cn1cc(-c2cnc(N)c(C(=O)N[C@@H]3CCN(C(=O)c4ccc(-c5ccc(N)cc5)cc4)C3)c2)cn1` [Example 662, (R)-2-amino-N-(1-(4′-amino-[1,1′-biphenyl]-4-carbonyl)pyrrolidin-3-yl)-5-(1-methyl-1H-pyrazol-4-yl)nicotinamide], for which the pIC50 is less than 6.00.

Compound `Cn1cc(-c2cnc(N)c(C(=O)N[C@@H]3CCN(C(=O)c4nc(-c5ccccc5)oc4C(F)(F)F)C3)c2)cn1` [Example 458, (R)-2-amino-5-(1-methyl-1H-pyrazol-4-yl)-N-(1-(2-phenyl-5-(trifluoromethyl)oxazole-4-carbonyl)pyrrolidin-3-yl)nicotinamide] showed a pIC50 of less than 6.00.

The compound `Cn1cc(-c2cnc(N)c(C(=O)N[C@@H]3CCN(C(=O)C=Cc4ccccc4)C3)c2)cn1` [Example 424, (R)-2-amino-N-(1-cinnamoylpyrrolidin-3-yl)-5-(1-methyl-1H-pyrazol-4-yl)nicotinamide] had a pIC50 of less than 6.00.

`Cn1cc(-c2cncc(C(=O)N[C@@H]3CCN(C(=O)Nc4cc(Cl)cc(Cl)c4)C3)c2)cn1` [Example 22, (R)—N-(1-((3,5-dichlorophenyl)carbamoyl)pyrrolidin-3-yl)-5-(1-methyl-1H-pyrazol-4-yl)nicotinamide]: the pIC50 is less than 6.00.

For `Cn1cc(-c2cnc(N)c(C(=O)N[C@@H]3CCN(C(=O)c4ccc(OCc5ccccc5)cc4)C3)c2)cn1` [Example 410, (R)-2-amino-N-(1-(4-(benzyloxy)benzoyl)pyrrolidin-3-yl)-5-(1-methyl-1H-pyrazol-4-yl)nicotinamide], the pIC50 was 6.00 to 7.00.

In turn, `Cn1cc(-c2cnc(N)c(C(=O)N[C@@H]3CCN(C(=O)c4ccc(-c5ccccc5-c5ccccc5)cc4)C3)c2)cn1` [Example 352, (R)—N-(1-([1,1′:2′,1″-terphenyl]-4-carbonyl)pyrrolidin-3-yl)-2-amino-5-(1-methyl-1H-pyrazol-4-yl)nicotinamide] gave a pIC50 of less than 6.00.

`Cn1cc(-c2cnc(N)c(C(=O)N[C@@H]3CCN(C(=O)c4ccc(-c5ccc(C(C)(C)N6CCN(CCO)CC6)cc5)cc4)C3)c2)cn1` [Example 387, (R)-2-amino-N-(1-(4′-(2-(4-(2-hydroxyethyl)piperazin-1-yl)propan-2-yl)-[1,1′-biphenyl]-4-carbonyl)pyrrolidin-3-yl)-5-(1-methyl-1H-pyrazol-4-yl)nicotinamide] gave a pIC50 of 6.00 to 7.00.

Regarding `Cn1cc(-c2cnc(N)c(C(=O)N[C@@H]3C[C@H](C(=O)O)N(C(=O)c4ccc(-c5ccc(F)cc5Cl)cc4)C3)c2)cn1` [Example 839, (2R,4R)-4-(2-amino-5-(1-methyl-1H-pyrazol-4-yl)nicotinamido)-1-(2′-chloro-4′-fluoro-[1,1′-biphenyl]-4-carbonyl)pyrrolidine-2-carboxylic acid], the pIC50 is less than 6.00.

`Nc1ncc(-c2ccc(C(=O)N3CCOCC3)cc2)cc1C(=O)N[C@@H]1CCN(C(=O)Oc2cccc(-c3ccccc3)c2)C1` [Example 83, [1,1′-biphenyl]-3-yl (R)-3-(2-amino-5-(4-(morpholine-4-carbonyl)phenyl)nicotinamido)pyrrolidine-1-carboxylate]: the pIC50 was 6.00 to 7.00.

In turn, `Cn1cc(-c2cnc(N)c(C(=O)N[C@@H]3CCN(C(=O)c4ccc(-c5cc(F)ccc5Cl)cc4)C3)c2)cn1` [Example 667, (R)-2-amino-N-(1-(2′-chloro-5′-fluoro-[1,1′-biphenyl]-4-carbonyl)pyrrolidin-3-yl)-5-(1-methyl-1H-pyrazol-4-yl)nicotinamide] gave a negative-log IC50 (pIC50) of 7.00 to 8.00.

As for `Cc1cc(-c2cc(F)ccc2Cl)ccc1C(=O)N1CC[C@@H](NC(=O)c2cc(-c3cnn(C)c3)cnc2N)C1` [Example 691, (R)-2-amino-N-(1-(2′-chloro-5′-fluoro-3-methyl-[1,1′-biphenyl]-4-carbonyl)pyrrolidin-3-yl)-5-(1-methyl-1H-pyrazol-4-yl)nicotinamide], the pIC50 was less than 6.00.

With `CN1CCN(Cc2ccc(-c3cccc(CN4CC[C@@H](NC(=O)c5cc(-c6cnn(C)c6)cnc5N)C4)c3)cc2)CC1` [Example 246, (R)-2-amino-5-(1-methyl-1H-pyrazol-4-yl)-N-(1-((4′-((4-methylpiperazin-1-yl)methyl)-[1,1′-biphenyl]-3-yl)methyl)pyrrolidin-3-yl)nicotinamide], the pIC50 was less than 6.00.

On to `Cn1cc(-c2cnc(N)c(C(=O)N[C@@H]3CCN(C(=O)Oc4cccc(-c5ccc(CNC[C@@H]6CCCN6)cc5)c4)C3)c2)cn1` [Example 312, 4′-(((((S)-pyrrolidin-2-yl)methyl)amino)methyl)-[1,1′-biphenyl]-3-yl (R)-3-(2-amino-5-(1-methyl-1H-pyrazol-4-yl)nicotinamido)pyrrolidine-1-carboxylate], for which the pIC50 was 6.00 to 7.00.

For `Cn1cc(-c2cnc(N)c(C(=O)N[C@@H]3CCN(C(=O)Nc4cccc(Oc5ccccc5)c4)C3)c2)cn1` [Example 17, (R)-2-amino-5-(1-methyl-1H-pyrazol-4-yl)-N-(1-((3-phenoxyphenyl)carbamoyl)pyrrolidin-3-yl)nicotinamide], the pIC50 was 7.00 to 8.00.

Take `COC(=O)c1cccc(OC(=O)N2CC[C@@H](NC(=O)c3cc(-c4cnn(C)c4)cnc3N)C2)c1` [Example 64, 3-(methoxycarbonyl)phenyl (R)-3-(2-amino-5-(1-methyl-1H-pyrazol-4-yl)nicotinamido)pyrrolidine-1-carboxylate]: the negative-log IC50 (pIC50) is less than 6.00.

For `Cn1cc(-c2cnc(N)c(C(=O)N[C@@H]3CCN(C(=O)c4ccc(-c5cc(Cl)ccc5Cl)cc4)C3)c2)cn1` [Example 367, (R)-2-amino-N-(1-(2′,5′-dichloro-[1,1′-biphenyl]-4-carbonyl)pyrrolidin-3-yl)-5-(1-methyl-1H-pyrazol-4-yl)nicotinamide], the negative-log IC50 (pIC50) is 7.00 to 8.00.

`Cn1cc(-c2cnc(N)c(C(=O)N[C@@H]3CCN(C(=O)c4ccc(-c5cccc(CN6CCN(CCO)CC6)c5)cc4)C3)c2)cn1` [Example 389, (R)-2-amino-N-(1-(3′-((4-(2-hydroxyethyl)piperazin-1-yl)methyl)-[1,1′-biphenyl]-4-carbonyl)pyrrolidin-3-yl)-5-(1-methyl-1H-pyrazol-4-yl)nicotinamide] had a pIC50 of 6.00 to 7.00.

As to `CN1CC[C@@H]2CN(Cc3ccc(-c4cccc(OC(=O)N5CC[C@@H](NC(=O)c6cc(-c7cnn(C)c7)cnc6N)C5)c4)cc3)C[C@@H]21` [Example 322, 4′-(((3aR,6aR)-1-methylhexahydropyrrolo[3,4-b]pyrrol-5(1H)-yl)methyl)-[1,1′-biphenyl]-3-yl (R)-3-(2-amino-5-(1-methyl-1H-pyrazol-4-yl)nicotinamido)pyrrolidine-1-carboxylate], the pIC50 is 6.00 to 7.00.

As for `Cn1cc(-c2cnc(N)c(C(=O)N[C@@H]3CCN(C(=O)[C@H]4C[C@@H]4c4ccccc4)C3)c2)cn1` [Example 705, 2-amino-5-(1-methyl-1H-pyrazol-4-yl)-N—((R)-1-((1S,2S)-2-phenylcyclopropane-1-carbonyl)pyrrolidin-3-yl)nicotinamide], the pIC50 is less than 6.00.

`Cn1cc(-c2cnc(N)c(C(=O)N[C@@H]3CCN(C(=O)c4ccc(C#CCCCO)cc4)C3)c2)cn1` [Example 554, (R)-2-amino-N-(1-(4-(5-hydroxypent-1-yn-1-yl)benzoyl)pyrrolidin-3-yl)-5-(1-methyl-1H -pyrazol-4-yl)nicotinamide] had a pIC50 of 6.00 to 7.00.

With `Cc1c(-c2ccc(C(=O)N3CC[C@@H](NC(=O)c4cc(-c5cnn(C)c5)cnc4N)C3)cc2)cnn1C` [Example 517, (R)-2-amino-N-(1-(4-(1,5-dimethyl-1H-pyrazol-4-yl)benzoyl)pyrrolidin-3-yl)-5-(1-methyl-1H-pyrazol-4-yl)nicotinamide], the pIC50 is 7.00 to 8.00.

The compound `Cn1cc(-c2cnc(N)c(C(=O)N[C@@H]3CCN(C(=O)N4CCc5cccc(Br)c5C4)C3)c2)cn1` [Example 29, (R)-2-amino-N-(1-(8-bromo-1,2,3,4-tetrahydroisoquinoline-2-carbonyl)pyrrolidin-3-yl)-5-(1-methyl-1H-pyrazol-4-yl)nicotinamide] showed a pIC50 of less than 6.00.

In turn, `CN1CCN(Cc2cccc(-c3cccc(CN4CC[C@@H](NC(=O)c5cc(-c6cnn(C)c6)cnc5N)C4)c3)c2)CC1` [Example 245, (R)-2-amino-5-(1-methyl-1H-pyrazol-4-yl)-N-(1-((3′-((4-methylpiperazin-1-yl)methyl)-[1,1′-biphenyl]-3-yl)methyl)pyrrolidin-3-yl)nicotinamide] had a negative-log IC50 (pIC50) of less than 6.00.
